Experimental data: patent US20250084065A1, “INHIBITING MONOACYLGLYCEROL LIPASE (MAGL)” (Psy Therapeutics, Inc., priority 2021, published 2025)
Like-named read-outs stand apart in the source and are kept apart here. Each block holds one molecule with its values, some of them ahead of it.

Columns and labels:
[1] = biological target: T1, human MAGL (Homo sapiens, UniProt Q99685); test: MAGL inhibition potency assay with 4-nitrophenyl acetate (4NPA) substrate, absorbance 405 nm; type: biochemical; details: read-out: MAGL Potency (Detection Method)
T1 construct: recombinant MAGL enzyme (aa 2-303 RBC, internal preparation)
T1 sequence (Q99685 2-303): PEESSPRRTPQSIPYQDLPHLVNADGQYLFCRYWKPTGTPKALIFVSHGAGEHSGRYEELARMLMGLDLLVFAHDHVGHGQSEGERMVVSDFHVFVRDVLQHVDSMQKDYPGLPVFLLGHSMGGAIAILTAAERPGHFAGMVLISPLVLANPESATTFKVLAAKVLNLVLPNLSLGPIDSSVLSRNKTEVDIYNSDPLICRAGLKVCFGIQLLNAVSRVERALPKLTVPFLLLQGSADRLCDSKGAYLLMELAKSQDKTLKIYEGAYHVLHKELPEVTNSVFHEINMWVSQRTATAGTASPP
Text: Example 22: Measuring MAGL Inhibition Potency (IC50) The potency of certain compounds for inhibiting MAGL were obtained using the following assays. The monoacylglycerol lipase inhibitor screening assay kit from Cayman Chemical was used to measure the MAGL potency for the compounds in Table 6 and Table 7. Cayman's Monoacylglycerol Lipase Inhibitor Screening Assay provides a method for screening human MAGL inhibitors. MAGL hydrolyzes 4-nitrophenylacetate resulting in a yellow product, 4-nitrophenol, with an absorbance of 405-412 nm. MAGL Inhibition was measured by the following assay. Monoacylglycerol Lipase (MAGL) inhibition was measured using recombinant MAGL enzyme (aa 2-303 RBC, internal preparation) and the substrate 4-Nitrophenyl acetate (4NPA) (Sigma-Aldrich, N8130). Hydrolysis of the substrate in the presence of the enzyme was measured by absorbance at 405 nm. 10 μL of assay buffer (10 mM Tris pH 7.5, 1 mM EDTA, 0.9% DMSO) was added to a black 384-well non-binding plate with clear bottom (Greiner, 781906) for each reaction. […] DMSO control wells were included for reference. A 10.8 nM (1.8×) MAGL mix in assay buffer was prepared, with 25 μL added to each reaction well, for a final assay concentration of 6 nM. No enzyme wells received 25 μL of buffer. Plate was incubated at room temperature for 30 minutes. 35 mM solution of 4NPA in methanol was prepared daily. A 4.5×4NPA substrate solution was prepared in assay buffer and 10 μL was added to each reaction well, for a final assay concentration of 0.25 mM. Plate was spun for […] at 100 rpm before measuring absorbance using a CLARIOstar plate reader (BMG Labtech). A kinetic reading at 405 nm was done every minute for 30 minutes. Data was analyzed using the linear slope of the reaction progress curve and the average of the no-enzyme wells (background) was subtracted from the data. The background-subtracted slope data was converted to % activity using the average of wells with enzyme and DMSO vehicle. IC50 were calculated using GraphPad software (Sigmoidal dose response, variable slope equation). […] Table S provides potency measurements of MAGL inhibition measured using the Potency Assay of Example 22 above, with the following modifications described in Table C. [table]

[2] = Pharmacokinetic study of compounds in mice (brain exposure); type: in vivo, male C57BL/6 mice; details: oral; for AUC(0-t) / Cmax: male, C57BL/6, mouse, 5 mg/kg, Protocols B-E
Method: Example 25: Pharmacokinetic Study of Compounds in Mice
Healthy male C57BL/6 mice (8-12 weeks old) weighing between 17 to 35 g were procured from Global, India. Temperature and humidity were maintained at 22±3° C. and 30-70%, respectively and illumination was controlled to give a sequence of 12 hr light and 12 hr dark cycle. Temperature and humidity were recorded by auto-controlled data logger system. All the animals were provided laboratory rodent diet. Reverse osmosis water treated with ultraviolet light was provided ad libitum.
Protocol A: Twenty-four male mice were divided into two groups as; Group 1: 30 mg/kg/IP; Plasma and brain; Number of animals=12; Animal #1-12. Group 2: 30 mg/kg/PO; Plasma and brain; Number of animals=12; Animal #13-24. Animals in Group 1 were administered intraperitoneally with solution formulation of PSY-05-00074-001 in 5% NMP, 5% Solutol HS-15 and 90% normal saline at […] dose. Animals in Group 2 were administered orally with solution formulation of PSY-05-00074-001 in 5% NMP, 5% Solutol HS-15 and 90% normal saline at 30 mg/kg dose. Blood samples (approximately 60 μL) were collected under light isoflurane anesthesia from retro orbital plexus at 0.25, 0.5, 1, 2, 4 and 8 hr (IP and PO). Plasma samples were separated by centrifugation of whole blood and stored below −70° C. until bioanalysis. Immediately after collection of blood from intraperitoneal and oral group animals, animals were euthanized with excess CO2 and brain samples were collected from set of two mice at each time point. Brain samples were divided into two parts. Half brain samples were homogenized using ice-cold phosphate buffer saline (pH-7.4) and homogenates were stored below −70±10° C. until analysis. Total homogenate volume was three times the brain weight. Other part of brain was stored below −70±10° C. for further analysis. All samples were processed for analysis by protein precipitation using acetonitrile and analyzed with fit-for-purpose LC/MS/MS method (LLOQ-2.02 ng/mL for plasma and 6.06 ng/g for brain). Pharmacokinetic parameters were calculated using the non-compartmental analysis tool of Phoenix WinNonlin®.
Protocol B: Thirty six mice were included into the study and divided in to three groups as Group 1 (n=12), Group 2 (n=12) and Group 3 (n=12) with n=2 mice per time-point design. Animals in Group 1 were administered intravenously with solution formulation of PSY-05-00414-001 at 5 mg/kg dose. Animals in Group 2 were administered orally with solution formulation of PSY-05-00414-001 at a dose of 5 mg/kg. Animals in Group 3 were administered intraperitoneally with solution formulation of PSY-05-00414-001 at 5 mg/kg dose. The formulation vehicle for all the three groups was 5% NMP, 5% Solutol HS-15 and 90% normal saline. Blood samples (approximately 60 μL) were collected under light isoflurane anesthesia from two mice at 0.25, 0.5, 1, 2, 4 and 8 h. Plasma was harvested by centrifugation of blood and stored at −70±10° C. until analysis. After blood collection, brain was perfused and isolated at 0.25, 0.5, 1, 2, 4 and 8 h. Brain samples were dipped thrice in ice-cold phosphate buffer saline, blotted dry and cut in to two equal portion. Half-brain samples from each time-point were weighed and homogenized using ice-cold phosphate buffer saline with twice volume of brain weight making the total homogenate three volumes and stored below −70±10′° C. until analysis. Remaining half-portions of brain samples was snap freeze and kept in −70±10° C. until further confirmation from client. Plasma and brain samples were quantified by fit-for-purpose LC-MS/MS method (LLOQ: 1.01 ng/mL for plasma and 2.02 ng/mL for brain).
Protocol C: Fifty four male mice were included in study and divided in to three groups as Group 1 (n=18), Group 2 (n=18) and Group 3 (n=18) with 3 mice/time point design. […]

[3] = Method 12: Reaction Biology MAGL enzyme prep, 15 nM enzyme
[4] = Method 13: Reaction Biology MAGL enzyme prep, 12 nM enzyme

IC50 [1, 3]: 50 to 150 nM
SMILES: Cc1cc(C2CC3(C2)CN(C(=O)c2ccc(F)cc2OC2CC2)C3)n(-c2cc(F)ccc2C)n1 (single isomer, unassigned) [Compound 418, (2-cyclopropoxy-4-fluorophenyl){6-[1-(5-fluoro-2-tolyl)-3-methyl-5-pyrazolyl]-2-aza-2-spiro[3.3]heptyl}methanone]

IC50 ([1]; Method 6: Reaction Biology MAGL enzyme prep, 6 nM enzyme): 50 to 150 nM
AUC(0-t) [2]: 1200 ng·h/mL
Cmax [2]: 271 ng/g
SMILES: O=C(c1ccc(F)cc1OC1CC1)N1CC2(CC(n3nc(-c4ccccc4C(F)(F)F)cc3C(F)(F)F)C2)C1 (single isomer, unassigned) [Compound 451, (2-cyclopropoxy-4-fluorophenyl)(6-{5-(trifluoromethyl)-3-[o-(trifluoromethyl)phenyl]-1-pyrazolyl}-2-aza-2-spiro[3.3]heptyl)methanone]

IC50 [1, 3]: 50 to 150 nM
SMILES: O=C(c1cc(O)ccc1F)N1CC2(CC(n3ncc(C(F)(F)F)c3-c3ccccc3F)C2)C1 (single isomer, unassigned) [Compound 472]

IC50 [1, 3]: 150 to 500 nM
SMILES: Cc1ccc(F)c(-c2c(C(F)(F)F)cnn2C2CC3(C2)CN(C(=O)c2cc(O)ccc2F)C3)c1 (single isomer, unassigned) [Compound 474, (2-fluoro-5-hydroxyphenyl)(6-(5-(2-fluoro-5-methylphenyl)-4-(trifluoromethyl)-1H-pyrazol-1-yl)-2-azaspiro[3.3]heptan-2-yl)methanone]

SMILES: Cc1cnn(C2CC3(C2)CN(C(=O)c2cc(O)ccc2F)C3)c1-c1cc(F)ccc1F (single isomer, unassigned) [Compound 476, (6-(5-(2,5-Difluorophenyl)-4-methyl-1H-pyrazol-1-yl)-2-azaspiro [3.3]heptan-2-yl) (2-fluoro-5-hydroxyphenyl) methanone]
AUC(0-t) [2]: 224 ng·h/mL
Cmax [2]: 72 ng/g

IC50 [1, 3]: 500 to 1000 nM
SMILES: Cc1ccc(F)cc1-n1nc(C2CC3(C2)CN(C(=O)c2ccc(F)cc2OC2CC2)C3)cc1C (single isomer, unassigned) [Compound 482, (2-cyclopropoxy-4-fluorophenyl){6-[1-(5-fluoro-2-tolyl)-5-methyl-3-pyrazolyl]-2-aza-2-spiro[3.3]heptyl}methanone]

IC50 [1, 4]: 50 to 150 nM
SMILES: Cc1ccc(F)cc1-c1cc(C2CC2)nn1C1CC2(C1)CN(C(=O)c1cc(O)ccc1F)C2 (single isomer, unassigned) [Compound 490, (6-(3-cyclopropyl-5-(5-fluoro-2-methylphenyl)-1H-pyrazol-1-yl)-2-azaspiro [3.3]heptan-2-yl) (2-fluoro-5-hydroxyphenyl) methanone]

IC50 [1, 4]: < 50 nM
SMILES: Cc1ccc(F)cc1-c1cc(C2CC2)n(C2CC3(C2)CN(C(=O)c2cc(O)ccc2F)C3)n1 (single isomer, unassigned) [Compound 491, (6-(5-cyclopropyl-3-(5-fluoro-2-methylphenyl)-1H-pyrazol-1-yl)-2-azaspiro [3.3]heptan-2-yl)(2-fluoro-5-hydroxyphenyl)methanone]

IC50 [1, 3]: 50 to 150 nM
SMILES: O=C(c1cc(O)ccc1F)N1CC2(CC(n3ncc(C4CC4)c3-c3ccccc3F)C2)C1 (single isomer, unassigned) [Compound 492, (6-(4-Cyclopropyl-5-(2-fluorophenyl)-1H-pyrazol-1-yl)-2-azaspiro [3.3]heptan-2-yl) (2-fluoro-5-hydroxyphenyl) methanone]

IC50 [1, 3]: 50 to 150 nM
SMILES: O=C(c1cc(O)ccc1F)N1CC2(CC(n3nccc3-c3ccccc3C(F)(F)F)C2)C1 (single isomer, unassigned) [Compound 526, (2-fluoro-5-hydroxyphenyl)(6-(5-(2-(trifluoromethyl)phenyl)-1H-pyrazol-1-yl)-2-azaspiro [3.3]heptan-2-yl)methanone]

SMILES: Cc1cc(C2CC3(C2)CN(C(=O)c2cc(O)ccc2F)C3)n(-c2ccccc2C)n1 [Compound 74, (2-fluoro-5-hydroxyphenyl)(6-(3-methyl-1-(o-tolyl)-1H-pyrazol-5-yl)-2-azaspiro[3.3]heptan-2-yl)methanone]
AUClast ([2]; 30 mg/kg, Protocol A): 116.52 ng·h/mL

IC50 ([1]; Method 14: Reaction Biology MAGL enzyme prep, 6 nM enzyme (Conc "0", Source "0")): 50 to 150 nM
SMILES: Cc1ccccc1-n1nccc1C1CC2(C1)CN(C(=O)c1cc(O)ccc1F)C2 [Compound 367, (2-fluoro-5-hydroxyphenyl) (6-(1-(o-tolyl)-1H-pyrazol-5-yl)-2-azaspiro [3.3]heptan-2-yl) methanone]
